For one experiment, the target named is T1, HiBit-BRM fusion protein (Homo sapiens, UniProt P51531).
T1 construct: expressed in transfected cells
The experiment in a line: HiBiT-BRM cell-based degradation assay (Nano-Glo HiBiT Lytic Detection, 24 h). To be noted: stable HeLa cell line expressing HiBiT-BRM; for DC50: read-out: BRM HiBit Degradation IC50. The procedure:
(§1) Procedure: A stable HeLa cell line expressing HiBiT-BRM was generated. On day 0, 5000 cells were seeded in 40 μL of media into each well of 384-well cell culture plates. On day 1, cells were treated with 120 nL DMSO or 120 nL of 3-fold serially DMSO-diluted compounds (10 points in duplicate with 30 μM as final top dose). Subsequently plates were incubated for 24 h in a standard tissue culture incubator and equilibrated at room temperature for 15 minutes. Nano-Glo HiBiT Lytic Detection System (Promega N3050) reagent was freshly prepared and 20 ul was added to each well. Upon addition of this LgBit-containing reagent, the HiBiT and LgBiT proteins associate to form the luminescent NanoBiT Iuciferase. The plates were shaken for 10 minutes at room temperature and the bioluminescence read using an EnVision plate reader (PerkinElmer).
(§2) The degradation % was calculated using the following formula: % degradation=100%-100%×(LumSample−LumLC)/(LumHC−LumLC). DMSO treated cells are employed as High Control (HC) and 2 μM of a known BRM/BRG1 degrader standard treated cells are employed as Low Control (LC).

The target in experiment [1] is T2, HiBit-BRG1 fusion protein (Homo sapiens, UniProt P51532).
T2 construct: expressed in transfected cells
Put plainly: HiBiT-BRG1 cell-based degradation assay (Nano-Glo HiBiT Lytic Detection, 24 h). To be noted: stable HeLa cell line expressing HiBit-BRG1 and LgBit; for Dmax: read-out: BRG1 HiBit Degradation Maximum (%); for DC50: read-out: BRMG1 HiBit Degradation IC50. The procedure: as §1
For measurement of BRG1 degradation, a stable HeLa cell line expressing HiBit-BRG1 and LgBit was generated. The same protocol as above was then followed.
as §2
In general terms: With HiBiT, luminescence reflects the tagged protein that the partner subunit can reach.

Here are results for 10 molecules from patent US20250304596A1, “PYRAZINE DERIVATIVES AND USES THEREOF” (FOGHORN THERAPEUTICS INC., priority 2022, published 2025).

Some results are limits rather than exact numbers.

T2 sequence (P51532 whole entry, the tested form may be a part): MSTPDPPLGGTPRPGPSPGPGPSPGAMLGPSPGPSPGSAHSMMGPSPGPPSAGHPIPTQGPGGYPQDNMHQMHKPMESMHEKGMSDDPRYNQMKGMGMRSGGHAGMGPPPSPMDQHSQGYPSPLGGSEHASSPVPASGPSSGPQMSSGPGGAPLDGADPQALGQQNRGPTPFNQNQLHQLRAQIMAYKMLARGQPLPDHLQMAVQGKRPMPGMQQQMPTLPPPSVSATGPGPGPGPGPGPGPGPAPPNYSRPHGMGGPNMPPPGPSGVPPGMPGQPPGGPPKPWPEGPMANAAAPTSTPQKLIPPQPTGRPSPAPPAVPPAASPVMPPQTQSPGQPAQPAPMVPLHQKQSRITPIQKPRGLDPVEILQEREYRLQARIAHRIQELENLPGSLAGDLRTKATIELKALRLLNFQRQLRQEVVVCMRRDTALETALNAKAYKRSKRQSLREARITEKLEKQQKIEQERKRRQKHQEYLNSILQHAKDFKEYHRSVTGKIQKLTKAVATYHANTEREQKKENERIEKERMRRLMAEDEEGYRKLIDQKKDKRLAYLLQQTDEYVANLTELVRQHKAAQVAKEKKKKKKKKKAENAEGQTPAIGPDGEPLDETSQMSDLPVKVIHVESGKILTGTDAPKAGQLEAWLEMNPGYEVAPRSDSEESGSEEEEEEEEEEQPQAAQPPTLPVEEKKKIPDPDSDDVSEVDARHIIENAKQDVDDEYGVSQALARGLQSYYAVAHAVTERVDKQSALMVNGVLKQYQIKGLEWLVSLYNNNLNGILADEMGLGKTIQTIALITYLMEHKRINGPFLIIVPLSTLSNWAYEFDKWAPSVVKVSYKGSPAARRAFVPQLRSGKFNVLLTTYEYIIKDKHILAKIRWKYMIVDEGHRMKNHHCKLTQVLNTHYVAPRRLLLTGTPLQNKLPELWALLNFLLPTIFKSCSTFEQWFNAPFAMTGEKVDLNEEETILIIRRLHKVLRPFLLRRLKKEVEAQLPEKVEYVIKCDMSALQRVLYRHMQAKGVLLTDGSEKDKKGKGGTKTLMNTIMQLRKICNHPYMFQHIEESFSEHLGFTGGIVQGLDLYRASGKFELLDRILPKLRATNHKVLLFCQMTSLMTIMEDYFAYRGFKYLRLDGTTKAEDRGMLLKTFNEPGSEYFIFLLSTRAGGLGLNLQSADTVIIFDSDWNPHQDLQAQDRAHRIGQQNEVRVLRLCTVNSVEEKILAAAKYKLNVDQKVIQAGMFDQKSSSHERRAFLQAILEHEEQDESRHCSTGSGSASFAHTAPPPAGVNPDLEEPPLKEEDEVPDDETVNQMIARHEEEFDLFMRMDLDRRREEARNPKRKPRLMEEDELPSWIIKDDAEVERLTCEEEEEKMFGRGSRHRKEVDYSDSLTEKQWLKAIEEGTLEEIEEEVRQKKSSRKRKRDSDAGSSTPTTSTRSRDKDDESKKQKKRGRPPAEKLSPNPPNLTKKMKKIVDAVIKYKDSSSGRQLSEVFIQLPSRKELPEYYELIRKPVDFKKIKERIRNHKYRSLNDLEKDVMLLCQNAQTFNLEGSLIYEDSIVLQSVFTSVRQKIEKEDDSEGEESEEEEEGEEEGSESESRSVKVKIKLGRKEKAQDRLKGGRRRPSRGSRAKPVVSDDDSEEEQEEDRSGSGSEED
T1 sequence (P51531 whole entry, the tested form may be a part): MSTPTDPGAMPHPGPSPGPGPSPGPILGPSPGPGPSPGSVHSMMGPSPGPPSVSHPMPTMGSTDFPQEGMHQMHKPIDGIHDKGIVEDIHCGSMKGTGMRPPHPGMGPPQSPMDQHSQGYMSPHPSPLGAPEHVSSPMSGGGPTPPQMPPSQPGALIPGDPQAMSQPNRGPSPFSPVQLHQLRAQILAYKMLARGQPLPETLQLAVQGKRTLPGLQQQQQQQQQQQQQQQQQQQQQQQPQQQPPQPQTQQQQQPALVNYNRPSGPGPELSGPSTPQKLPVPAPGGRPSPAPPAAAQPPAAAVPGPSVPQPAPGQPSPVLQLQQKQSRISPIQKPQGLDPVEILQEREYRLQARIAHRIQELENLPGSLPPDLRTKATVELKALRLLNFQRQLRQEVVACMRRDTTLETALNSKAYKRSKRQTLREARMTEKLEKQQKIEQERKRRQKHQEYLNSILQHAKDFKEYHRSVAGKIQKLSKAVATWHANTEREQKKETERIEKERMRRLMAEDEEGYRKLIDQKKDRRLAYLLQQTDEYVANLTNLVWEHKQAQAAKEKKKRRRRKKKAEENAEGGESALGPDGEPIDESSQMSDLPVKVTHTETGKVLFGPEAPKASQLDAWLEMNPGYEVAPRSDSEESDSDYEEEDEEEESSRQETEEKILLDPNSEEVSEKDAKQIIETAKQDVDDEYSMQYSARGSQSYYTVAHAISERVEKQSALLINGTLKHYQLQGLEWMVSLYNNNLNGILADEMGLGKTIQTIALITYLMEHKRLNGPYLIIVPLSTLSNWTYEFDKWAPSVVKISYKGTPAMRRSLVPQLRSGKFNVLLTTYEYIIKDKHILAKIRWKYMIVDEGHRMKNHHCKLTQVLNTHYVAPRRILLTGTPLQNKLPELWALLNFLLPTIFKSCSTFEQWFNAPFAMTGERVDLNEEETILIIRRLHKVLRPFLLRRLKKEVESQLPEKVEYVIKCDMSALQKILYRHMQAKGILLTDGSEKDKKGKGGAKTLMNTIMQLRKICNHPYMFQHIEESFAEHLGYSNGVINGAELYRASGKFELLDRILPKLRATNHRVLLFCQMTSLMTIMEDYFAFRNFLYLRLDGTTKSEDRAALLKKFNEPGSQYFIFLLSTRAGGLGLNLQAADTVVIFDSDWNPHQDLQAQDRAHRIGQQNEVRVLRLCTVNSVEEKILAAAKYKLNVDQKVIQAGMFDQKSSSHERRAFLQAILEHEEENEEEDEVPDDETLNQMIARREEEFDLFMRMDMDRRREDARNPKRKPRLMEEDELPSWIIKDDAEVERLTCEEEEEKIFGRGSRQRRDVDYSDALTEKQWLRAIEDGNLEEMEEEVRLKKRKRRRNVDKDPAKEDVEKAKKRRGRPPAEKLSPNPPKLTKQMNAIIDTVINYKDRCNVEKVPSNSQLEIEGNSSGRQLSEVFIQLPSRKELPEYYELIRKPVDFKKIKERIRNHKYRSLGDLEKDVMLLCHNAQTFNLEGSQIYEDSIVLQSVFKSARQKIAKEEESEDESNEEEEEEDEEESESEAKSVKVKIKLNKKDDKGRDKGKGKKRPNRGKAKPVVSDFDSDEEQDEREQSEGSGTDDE

With `Cc1nc(N2CCC(c3sc4nnc(-c5ccccc5O)cc4c3C)CC2)ccc1-c1cc([C@H](C(=O)N2C[C@H](O)C[C@H]2C(=O)N[C@@H](C)c2ccc(-c3scnc3C)cc2)C(C)C)on1` [Compound 42, (2S,4R)-4-hydroxy-1-((R)-2-(3-(6-(4-(3-(2-hydroxyphenyl)-5-methylthieno[2,3-c]pyridazin-6-yl)piperidin-1-yl)-2-methylpyridin-3-yl)isoxazol-5-yl)-3-methylbutanoyl)-N-((S)-1-(4-(4-methylthiazol-5-yl)phenyl)ethyl)pyrrolidine-2-carboxamide], at HiBit-BRM fusion protein, the “BRM HiBit Degradation Maximum (%)” value is “A (“A” indicates maximum degradation ≥75%)” and the DC50 was less than 10 nM. Further, in experiment [1], the Dmax is greater than 50% and the DC50 was greater than 10 nM.

As to `Cc1nc(N2CC[C@H](c3sc4nnc(-c5ccccc5O)cc4c3C)C2)ccc1-c1cc([C@H](C(=O)N2C[C@H](O)C[C@H]2C(=O)N[C@@H](C)c2ccc(-c3scnc3C)cc2)C(C)C)on1` [Compound 95, (2S,4R)-4-hydroxy-1-((R)-2-(3-(6-((S)-3-(3-(2-hydroxyphenyl)-5-methylthieno[2,3-c]pyridazin-6-yl)pyrrolidin-1-yl)-2-methylpyridin-3-yl)isoxazol-5-yl)-3-methylbutanoyl)-N-((S)-1-(4-(4-methylthiazol-5-yl)phenyl)ethyl)pyrrolidine-2-carboxamide], at HiBit-BRM fusion protein, the “BRM HiBit Degradation Maximum (%)” value is “A (“A” indicates maximum degradation ≥75%)” and the DC50 is less than 10 nM. The Dmax in experiment [1] is less than 50%.

Consider `Cc1ncsc1-c1ccc([C@H](C)NC(=O)[C@@H]2C[C@@H](O)CN2C(=O)[C@@H](c2cc(N3CC4(C3)CN(c3sc5nnc(-c6ccccc6O)cc5c3C)C4)no2)C(C)C)cc1` [Compound 79, (2S,4R)-4-hydroxy-1-((R)-2-(3-(6-(3-(2-hydroxyphenyl)-5-methylthieno[2,3-c]pyridazin-6-yl)-2,6-diazaspiro[3.3]heptan-2-yl)isoxazol-5-yl)-3-methylbutanoyl)-N-((S)-1-(4-(4-methylthiazol-5-yl)phenyl)ethyl)pyrrolidine-2-carboxamide], for which, at HiBit-BRM fusion protein, the “BRM HiBit Degradation Maximum (%)” value is “A (“A” indicates maximum degradation ≥75%)” and the DC50 is less than 10 nM. Further, the Dmax in experiment [1] is greater than 50%.

`Cc1ncsc1-c1ccc([C@H](C)NC(=O)[C@@H]2C[C@@H](O)CN2C(=O)[C@@H](c2cc(N3CCC(c4sc5nnc(-c6ccccc6O)cc5c4C)CC3)no2)C(C)C)cc1` [Compound 56, (2S,4R)-4-hydroxy-1-((R)-2-(3-(4-(3-(2-hydroxyphenyl)-5-methylthieno[2,3-c]pyridazin-6-yl)piperidin-1-yl)isoxazol-5-yl)-3-methylbutanoyl)-N-((S)-1-(4-(4-methylthiazol-5-yl)phenyl)ethyl)pyrrolidine-2-carboxamide]: on HiBit-BRM fusion protein, the “BRM HiBit Degradation Maximum (%)” value is given as “B (“B” indicates maximum degradation ≥50%)” and the DC50 was greater than 10 nM. Besides, in experiment [1], the Dmax was less than 50% and the DC50 is greater than 1000 nM.

Regarding `Cc1ncsc1-c1ccc([C@H](C)NC(=O)[C@@H]2C[C@@H](O)CN2C(=O)[C@@H](c2cc(-c3ccnc(N4CC[C@@H](c5sc6nnc(-c7ccccc7O)cc6c5C)C4)n3)no2)C(C)C)cc1` [Compound 7, (2S,4R)-4-hydroxy-1-((R)-2-(3-(2-((R)-3-(3-(2-hydroxyphenyl)-5-methylthieno[2,3-c]pyridazin-6-yl)pyrrolidin-1-yl)pyrimidin-4-yl)isoxazol-5-yl)-3-methylbutanoyl)-N-((S)-1-(4-(4-methylthiazol-5-yl)phenyl)ethyl)pyrrolidine-2-carboxamide], at HiBit-BRM fusion protein, the “BRM HiBit Degradation Maximum (%)” value is “C (“C” indicates maximum degradation <50%)” and the DC50 is greater than 1000 nM. Besides, in experiment [1], the Dmax was less than 50% and the DC50 was greater than 1000 nM.

Turning to `Cc1ncsc1-c1ccc([C@H](C)NC(=O)[C@@H]2C[C@@H](O)CN2C(=O)[C@@H](c2cc(-c3ccc(N4CCC(c5sc6nnc(-c7ccccc7O)cc6c5C)CC4)c(F)c3)no2)C(C)C)cc1` [Compound 103, (2S,4R)-1-((R)-2-(3-(3-fluoro-4-(4-(3-(2-hydroxyphenyl)-5-methylthieno[2,3-c]pyridazin-6-yl)piperidin-1-yl)phenyl)isoxazol-5-yl)-3-methylbutanoyl)-4-hydroxy-N-((S)-1-(4-(4-methylthiazol-5-yl)phenyl)ethyl)pyrrolidine-2-carboxamide], on HiBit-BRM fusion protein, the “BRM HiBit Degradation Maximum (%)” value was “A (“A” indicates maximum degradation ≥75%)” and the DC50 was less than 10 nM. Moreover, in experiment [1], the Dmax is less than 50%.

As to `Cc1cc(N2CC[C@H](c3sc4nnc(-c5ccccc5O)cc4c3C)C2)ncc1-c1cc([C@H](C(=O)N2C[C@H](O)C[C@H]2C(=O)N[C@@H](C)c2ccc(-c3scnc3C)cc2)C(C)C)on1` [Compound 97, (2S,4R)-4-hydroxy-1-((R)-2-(3-(6-((S)-3-(3-(2-hydroxyphenyl)-5-methylthieno[2,3-c]pyridazin-6-yl)pyrrolidin-1-yl)-4-methylpyridin-3-yl)isoxazol-5-yl)-3-methylbutanoyl)-N-((S)-1-(4-(4-methylthiazol-5-yl)phenyl)ethyl)pyrrolidine-2-carboxamide], on HiBit-BRM fusion protein, the “BRM HiBit Degradation Maximum (%)” value is on record as “A (“A” indicates maximum degradation ≥75%)” and the DC50 is greater than 10 nM. Moreover, the Dmax in experiment [1] was less than 50%.

Turning to `Cc1ncsc1-c1ccc([C@H](C)NC(=O)[C@@H]2C[C@@H](O)CN2C(=O)[C@@H](c2cc(N3CC[C@H](c4cc5nnc(-c6ccccc6O)cc5s4)C3)no2)C(C)C)cc1` [Compound 73, (2S,4R)-4-hydroxy-1-((R)-2-(3-((S)-3-(3-(2-hydroxyphenyl)thieno[3,2-c]pyridazin-6-yl)pyrrolidin-1-yl)isoxazol-5-yl)-3-methylbutanoyl)-N-((S)-1-(4-(4-methylthiazol-5-yl)phenyl)ethyl)pyrrolidine-2-carboxamide], at HiBit-BRM fusion protein, the “BRM HiBit Degradation Maximum (%)” value is “A (“A” indicates maximum degradation ≥75%)” and the DC50 is less than 10 nM. Also, the Dmax in experiment [1] is less than 50%.

In the case of `Cc1ncsc1-c1ccc([C@H](C)NC(=O)[C@@H]2C[C@@H](O)CN2C(=O)[C@@H](c2cc(-c3ncc(N4CCC(c5sc6nnc(-c7ccccc7O)cc6c5C)CC4)cn3)no2)C(C)C)cc1` [Compound 36, (2S,4R)-4-hydroxy-1-((R)-2-(3-(5-(4-(3-(2-hydroxyphenyl)-5-methylthieno[2,3-c]pyridazin-6-yl)piperidin-1-yl)pyrimidin-2-yl)isoxazol-5-yl)-3-methylbutanoyl)-N-((S)-1-(4-(4-methylthiazol-5-yl)phenyl)ethyl)pyrrolidine-2-carboxamide], on HiBit-BRM fusion protein, the “BRM HiBit Degradation Maximum (%)” value is listed as “A (“A” indicates maximum degradation ≥75%)” and the DC50 is greater than 10 nM. Besides, in experiment [1], the Dmax is less than 50% and the DC50 was greater than 1000 nM.

Regarding `Cc1ncsc1-c1ccc([C@H](C)NC(=O)[C@@H]2C[C@@H](O)CN2C(=O)[C@@H](c2cc(-c3cnc(N4CC[C@@H](c5cc6cc(-c7ccccc7O)nnc6s5)C4)nc3)no2)C(C)C)cc1` (single isomer, unassigned) [Compound 5], at HiBit-BRM fusion protein, the “BRM HiBit Degradation Maximum (%)” value is recorded as “A (“A” indicates maximum degradation ≥75%)” and the DC50 was less than 10 nM. Moreover, in experiment [1], the Dmax was less than 50% and the DC50 is greater than 1000 nM.
